According to patent US9562043B2 (EA Pharma Co., Ltd., priority 2012, dated 2017):

Biological target: T1, human TRPA1 (Homo sapiens, UniProt O75762)
T1 construct: host or cells: human embryonic kidney-derived 293T cells, transient transfection with pcDNA3.1/zeo(+) plasmid
Assay: Measurement of TRPA1 antagonist activity (intracellular calcium increase, FLIPR)
Type: cell-based
Details: 293T cells transfected with human TRPA1 expression plasmid, allylisothiocyanate 20 μM stimulation, calcium fluorescence, read-out: antagonism hTRPA1
Text: Measurement of TRPA1 Antagonist Activity
Human TRPA1 Expression Plasmid
As cDNA encoding human TRPA1 (GenBank accession No. […]), a commercially available product was purchased (manufactured by Kazusa DNA Research Institute, clone No.: pFN21AB7348, item No.: FHC07217). Using this as a template, full-length human TRPA1 gene was amplified using the primer sequences shown below, by reaction using DNA polymerase (manufactured by Stratagene, trade name: PfuUltra High-Fidelity DNA Polymerase).
A recognition site (underlined) of restriction enzyme HindIII was added to the 5′ side, and XbaI site (underlined) was added to the 3′ side, and GTT of the template sequence was changed to termination codon TAG (bold). The obtained double stranded DNA was enzyme-digested with HindIII and XbaI, and introduced into a multicloning site of expression plasmid pcDNA3.1/zeo(+) (manufactured by Invitrogen) to give a human TRPA1 expression plasmid.
Human embryonic kidney-derived 293T cells were cultured in Dulbecco's Modified Eagle Medium containing 10% fetal bovine serum, 10 unit penicillin, and 10 μg streptomycin, plated on a petri dish having a diameter of 10 cm at 3×10^6 cells, and cultured for 24 hr. A medium containing a reduced amount of serum (manufactured by Invitrogen, trade name: OPTI-MEM, 600 μL), a gene insertion reagent (manufactured by Mirus Bio, trade name: Mirus TransIT-293, 18 μL), and human TRPA1 expression plasmid (6 μg) were mixed, the total amount of the mixture was added to the cells on the petri dish to allow for gene transfer. The cells were recovered about 8 hr later, plated on a poly-D-lysine coated 384 well black/clear bottom plate at 7,500-12,000 cells/well, and cultured overnight.
Measurement of Intracellular Calcium Increase
The 384 well plate was recovered, and the medium was removed. A calcium-bonded fluorescent indicator (manufactured by Molecular Device, trade name: Calcium4 Assay Kit, 40 μL) dissolved in assay buffer (1×HBSS, 20 mM HEPES, pH 7.2) was added, and the cells were stained in a 37° C. incubator for 1 hr. The cells were taken out at room temperature and left standing for 15 min or more. A test substance (10 μL) was added by a 384 well type dispenser, and the mixture was incubated at room temperature for 10 min. Then, allylisothiocyanate (12.5 μL) at a final concentration of 20 μM was added by a fluorescence imaging plate reader (manufactured by Molecular Device, FLIPR), and changes in the relative fluorescence intensity were measured for 5 min.
Test Substance Preparation
The test substance was dissolved in dimethyl sulfoxide and serially diluted with an assay buffer containing 0.1% bovine serum albumin (1×HBSS, 20 mM HEPES, pH 7.2) to a 5-fold concentration of the evaluation concentration. Allylisothiocyanate, which is a known TRPA1 activator, was dissolved in dimethyl sulfoxide to 100 mM, and further diluted 5-fold (100 μM) of the final concentration, like the test substance.
Calculation of Antagonist Activity
Under the test substance-free conditions, the maximum variation range of the fluorescence intensity before and after allylisothiocyanate stimulation was defined to be 100% activity rate, and the variation range before and after buffer stimulation was defined as 0% activity rate. The activity rate on addition of the test substance was determined, and the numerical value obtained by subtracting the activity rate from 100 was defined to be an inhibitory rate. IC50, which is the concentration of the test substance necessary for reaching the 50% inhibitory rate, was calculated from the sigmoid approximate curve by a spreadsheet software Excel-Fit.

T1 sequence (O75762 whole entry): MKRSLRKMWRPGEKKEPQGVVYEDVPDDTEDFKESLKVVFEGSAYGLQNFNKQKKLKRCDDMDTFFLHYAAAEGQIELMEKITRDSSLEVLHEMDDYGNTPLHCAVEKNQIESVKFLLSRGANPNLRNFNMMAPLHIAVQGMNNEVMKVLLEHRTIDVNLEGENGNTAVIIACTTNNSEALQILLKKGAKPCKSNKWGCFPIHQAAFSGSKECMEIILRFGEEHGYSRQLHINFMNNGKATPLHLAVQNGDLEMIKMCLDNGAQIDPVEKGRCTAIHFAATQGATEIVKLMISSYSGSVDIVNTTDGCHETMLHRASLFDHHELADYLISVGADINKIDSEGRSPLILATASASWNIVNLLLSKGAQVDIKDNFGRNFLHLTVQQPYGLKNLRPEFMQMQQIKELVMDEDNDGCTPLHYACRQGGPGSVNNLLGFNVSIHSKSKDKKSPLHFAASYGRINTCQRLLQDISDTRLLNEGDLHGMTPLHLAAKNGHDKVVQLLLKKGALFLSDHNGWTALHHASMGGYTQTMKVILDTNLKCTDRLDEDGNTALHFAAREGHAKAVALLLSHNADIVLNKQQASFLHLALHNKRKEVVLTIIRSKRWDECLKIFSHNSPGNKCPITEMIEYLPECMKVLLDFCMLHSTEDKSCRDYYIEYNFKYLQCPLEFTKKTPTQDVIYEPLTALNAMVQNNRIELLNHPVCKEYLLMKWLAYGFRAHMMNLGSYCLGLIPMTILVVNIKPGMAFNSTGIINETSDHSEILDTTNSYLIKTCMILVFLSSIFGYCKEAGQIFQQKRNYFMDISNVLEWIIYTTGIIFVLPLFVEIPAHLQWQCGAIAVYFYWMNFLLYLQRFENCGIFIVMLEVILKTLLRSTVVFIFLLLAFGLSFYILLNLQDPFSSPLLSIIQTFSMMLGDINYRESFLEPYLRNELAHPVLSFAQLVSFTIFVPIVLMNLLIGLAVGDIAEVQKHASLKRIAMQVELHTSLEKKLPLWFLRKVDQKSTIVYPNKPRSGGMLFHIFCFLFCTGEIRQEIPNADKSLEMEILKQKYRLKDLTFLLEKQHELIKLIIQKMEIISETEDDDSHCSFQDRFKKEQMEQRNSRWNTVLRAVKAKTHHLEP

Structure (SMILES): O=C(NCc1nc(-c2ccc(C(F)(F)F)cc2)cs1)[C@@H]1CCCN1S(=O)(=O)c1ccc(Br)cc1 [compound 42, (2S)-1-(4-bromobenzene-2-sulfonyl)-N-({4-[4-(trifluoro-methyl)phenyl]thiazol-2-yl)-methyl)pyrrolidine-2-carboxamide]
- IC50: 1490 nM

Structure (SMILES): O=C(NCc1nc(-c2ccc(Cl)cc2)cs1)[C@@H]1CCCN1S(=O)(=O)c1ccc(Cl)s1 [compound 2, (2S)-1-(5-chlorothiophene-2-sulfonyl)-N-{[4-(4-chlorophenyl)thiazol-2-yl]methyl}pyrrolidine-2-carboxamide]
- IC50: 670 nM

Structure (SMILES): O=C(NCc1nc(-c2ccc(OC(F)(F)F)cc2)cs1)[C@@H]1CCN1S(=O)(=O)c1ccc(Cl)s1 [compound 32, (2S)-1-[5-chlorothiophene-2-sulfonyl)-N-({4-[4-(trifluoromethoxy)phenyl]-thiazol-2-yl}methyl)azetidine-2-carboxamide]
- IC50: 2790 nM

Structure (SMILES): Cc1sc(CNC(=O)[C@@H]2CCCN2S(=O)(=O)c2ccc(Cl)s2)nc1-c1ccc(C(F)(F)F)cc1 [compound 9, (2S)-1-(5-chlorothiophene-2-sulfonyl)-N-({5-methyl-4-[4-(trifluoromethyl)phenyl]-thiazol-2-yl}methyl)-pyrrolidine-2-carboxamide]
- IC50: 150 nM

Structure (SMILES): O=C(NCc1nc(-c2ccc(C(F)(F)F)cc2)cs1)[C@@H]1CCCN1S(=O)(=O)c1ccc(F)c(F)c1 [compound 51, (2S)-1-(3,4-difluorophenyl)sulfonyl-N-({4-[4-(trifluoromethyl)-phenyl)thiazol-2-yl}methyl)pyrrolidine-2-carboxamide]
- IC50: 60 nM

Structure (SMILES): O=C(NCc1nc(-c2ccc(Cl)cc2)cs1)[C@@H]1C=CCN1S(=O)(=O)c1ccc(Cl)s1 [compound 19, (2S)-1-(5-chlorothiophene-2-sulfonyl)-N-({4-[4-(chloro)phenyl]thiazol-2-yl}methyl)-3,4-didehydropyrrolidine-2-carboxamide]
- IC50: 560 nM

Structure (SMILES): O=C(NCc1csc(-c2ccc(C(F)(F)F)cc2)n1)[C@@H]1C=CCN1S(=O)(=O)c1ccc(Cl)s1 [compound 26, (2S)-1-(5-chlorothiophene-2-sulfonyl)-N-({2-[4-(trifluoromethyl)phenyl]-thiazol-4-yl}methyl)-3,4-didehydropyrrolidine-2-carboxamide]
- IC50: 180 nM

Structure (SMILES): O=C(NCc1nc(-c2ccc(C(F)(F)F)cc2)cs1)[C@@H]1CCCN1S(=O)(=O)c1cc(Br)c(Cl)s1 [compound 40, (2S)-1-(4-bromo-5-chlorothiophene-2-sulfonyl) ({4-[4-{trifluoromethyl)-phenyl]thiazol-2-yl}methyl) pyrrolidine-2-carboxamide]
- IC50: 270 nM

Structure (SMILES): O=C(NCc1nc(-c2ccc(C(F)(F)F)cc2)cs1)[C@@H]1CCCN1S(=O)(=O)c1ccc(Cl)cc1 [compound 38]
- IC50: 980 nM

Structure (SMILES): O=C(NCc1nc(-c2ccc(C(F)(F)F)cc2)cs1)[C@@H]1CCCN1S(=O)(=O)c1ccco1 [compound 48, (2S)-1-(2-furylsulfonyl)-N-({4-[4-(trifluoromethyl)-phenyl]thiazol-2-yl}methyl)-pyrrolidine-2-carboxamide]
- IC50: 990 nM

Structure (SMILES): O=C(NCc1nc(-c2ccc(C(F)(F)F)cc2)cs1)[C@@H]1CCCN1S(=O)(=O)c1cccc(F)c1 [compound 50, (2S)-1-(3-fluorophenyl) sulfonyl-N-({4-(4-(trifluoro-methyl)phenyl]thiazol-2-yl)-methyl)pyrrolidine-2-carboxamide]
- IC50: 100 nM

Structure (SMILES): O=C(NCc1nc(-c2ccc(C(F)(F)F)cc2)no1)[C@@H]1CCCN1S(=O)(=O)c1ccc(Cl)s1 [compound 15, (2S)-1-(5-chlorothiophene-2-sulfonyl)-N-({3-[4-(trifluoromethyl)phenyl]-1,2,4-oxadiazol-5-yl}methyl)pyrrolidine-2-carboxamide]
- IC50: 240 nM

Structure (SMILES): O=C(NCc1nc(-c2ccc(C(F)(F)F)cc2)cs1)[C@@H]1CSCN1S(=O)(=O)c1ccc(Cl)s1 [compound 29, (4R)-3-(5-chlorothiophene-2-sulfonyl)-N-({4-[4-(trifluoromethyl)phenyl]-thiazol-2-yl}methyl)-1,3-thiazolidine-4-carboxamide]
- IC50: 580 nM

Structure (SMILES): O=C(NCc1nc(-c2ccc(C(F)(F)F)cc2)cs1)[C@@H]1CC(F)(F)CN1S(=O)(=O)c1ccc(Cl)s1 [compound 27, (2S)-1-(5-chlorothiophene-2-sulfonyl)-N-({4-[4-(trifluoromethyl)phenyl]-thiazol-2-yl}methyl)-4,4-difluoropyrrolidine-2-carboxamide]
- IC50: 960 nM

Structure (SMILES): C[C@H](NC(=O)[C@@H]1CCCN1S(=O)(=O)c1ccc(Cl)s1)c1nc(-c2ccc(OC(F)(F)F)cc2)cs1 [compound 11, (2S)-1-(5-chlorothiophene-2-sulfonyl)-N-[(1S)-1-{4-(4-(trifluoromethoxy)phenyl]-thiazol-2-yl}ethyl]-pyrrolidine-2-carboxamide]
- IC50: 480 nM

Structure (SMILES): O=C(NCc1nc(-c2ccc(C(F)(F)F)cc2)cs1)[C@@H]1CCCN1S(=O)(=O)c1ccc(F)cc1F [compound 53, (2S)-1-(2,4-difluorophenyl)sulfonyl-N-{{4-[4-(trifluoromethyl)-phenyl]thiazol-2-yl}methyl)pyrrolidine-2-carboxamide]
- IC50: 4600 nM

Structure (SMILES): O=C(NCc1nc(-c2ccc(OC(F)(F)F)cc2)cs1)[C@@H]1CCCN1S(=O)(=O)c1ccc(Cl)s1 [compound 3, (2S)-1-(5-chlorothiophene-2-sulfonyl)-N-({4-[4-(trifluoromethoxy)phenyl]-thiazol-2-yl}methyl)-pyrrolidine-2-carboxamide]
- IC50: 160 nM

Structure (SMILES): Cc1ccc(S(=O)(=O)N2CCC[C@H]2C(=O)NCc2nc(-c3ccc(C(F)(F)F)cc3)cs2)s1 [compound 41, (2S)-1-(5-methylthiophene-2-sulfonyl)-N-({4-[4-(trifluoro-methyl)phenyl]thiazol-2-yl}-methyl)pyrrolidine-2-carboxamide]
- IC50: 1900 nM

Structure (SMILES): O=C(NCc1nc(-c2ccc(C(F)(F)F)cc2)cs1)[C@@H]1CCN1S(=O)(=O)c1ccc(Cl)s1 [compound 31, (2S)-1-(5-chlorothiophene-2-sulfonyl)-N-({4-[4-(trifluoromethyl)phenyl]-thiazol-2-yl}methyl)azetidine-2-carboxamide]
- IC50: 750 nM

Structure (SMILES): O=C(NCc1nc(-c2ccc(C(F)(F)F)cc2)cs1)[C@@H]1CCCN1S(=O)(=O)c1cc(F)cc(F)c1 [compound 54, (2S)-1-(3,5-difluorophenyl)sulfonyl-N-({4-[4-(trifluoromethyl)-phenyl]thiazol-2-yl}methyl)pyrrolidine-2-carboxamide]
- IC50: 170 nM

Structure (SMILES): O=C(NCc1nc(-c2ccc(C(F)(F)F)cc2)cs1)[C@@H]1CCCN1S(=O)(=O)c1cccc(Cl)c1 [compound 43]
- IC50: 2700 nM

Structure (SMILES): O=C(NCc1nc(-c2ccc(OC(F)(F)F)c(F)c2)cs1)[C@@H]1C=CCN1S(=O)(=O)c1ccc(Cl)s1 [compound 22, (2S)-1-(5-chlorothiophene-2-sulfonyl)-N-({4-[3-fluoro-4-(trifluoromethoxy)phenyl]-thiazol-2-yl}methyl)-3,4-didehydropyrrolidine-2-carboxamide]
- IC50: 110 nM

Structure (SMILES): O=C(NCc1nc(-c2ccc(OC(F)(F)F)c(F)c2)cs1)[C@@H]1CCCN1S(=O)(=O)c1ccc(Cl)s1 [compound 8, (2S)-1-(5-chlorothiophene-2-sulfonyl)-N-({4-[3-fluoro-4-(trifluoromethoxy)-phenyl]thiazol-2-yl}methyl)-pyrrolidine-2-carboxamide]
- IC50: 170 nM

Structure (SMILES): O=C(NCc1nc(-c2ccc(C(F)(F)F)cc2)cs1)[C@@H]1CCCN1S(=O)(=O)c1ccc(Cl)nc1 [compound 46, (2S)-1-[(6-chloro-3-pyridyl)-sulfonyl]-N-({4-[4-(trifluoro-methyl)phenyl]thiazol-2-yl}-methyl)pyrrolidine-2-carboxamide]
- IC50: 570 nM
